{"source": "patent US20250017888A1", "about": "“COMPOUNDS FOR TREATING DISEASES ASSOCIATED WITH HYALURONAN OVERPRODUCTION” (THE ROYAL VETERINARY COLLEGE, priority 2021, published 2025)", "format_in_all_cases": "in vivo, mouse", "key": {"Str/ort mice [1]": {"system": "Str/ort mice", "test": "Health evaluation of treated Str/ort mice", "settings": "50 mg/kg intraperitoneally, 18 weeks, vs vehicle", "experimental": "(§1) At 10-13 weeks of age, 21 male Str/ort mice (n=7/group) were assigned randomly to vehicle, hylin-betaine and xantho-betaine groups and were treated intraperitoneally 18 weeks with either vehicle (5% DMSO in 95% peanut oil), 50 mg/kg compound of Example 1 (“hylin-betaine”) in 5% DMSO and 95% peanut oil or 50 mg/kg compound of Example 2 (“xantho-betaine”) in 5% DMSO and 95% peanut oil.\nTo assess the health status after hylin-betaine and xantho-betaine treatment, mice were monitored for their health status. The monitoring criteria were body surface temperature, body weight, gait, coat condition, skin tenting for dehydration, hunching, activity, breathing rate and general body condition. Mice were scored blind for each one of these criteria from 1-5 except for body weight and temperature."}, "Str/ort mice [2]": {"system": "Str/ort mice", "test": "Gait analysis (treadmill, Digigait) in Str/ort mice", "experimental": "as §1\nGait was monitored using a treadmill-based video system (DigigaitTM system) in three treatment groups of mice at three time point, week 1, week 9 and week 18 of treatment. The number of mice was 7, 7 and 5 in groups 1, 2 and 3, respectively.\n[…] gait descriptors were used for the analyses. Thirty-four descriptors were obtained directly from the software of the system in the 4 limbs (LF: left front; RF: right front; LR: left rear; RR: right rear). All the others (143) were calculated indexes from gait measurements including swing, stance, brake, propel and stride times, stride length, frequency and coefficient of variation, paw area and paw angle and the variability of those two traits, the coefficient of variation of swing duration mid line distance, and minimum and maximum dAdT. The ratios of times were calculated in the 4 limbs: Brake, Propel, and Swing times relative to Stance and Stride times, Stance/Swing and Stance/Stride. In addition, the following additional indexes were considered:\nIn order to investigate whether there were differences among groups for each descriptor at the three experimental dates, an ANOVA was performed using data corresponding to each descriptor and date. Bonferroni correction was applied to counteract the problem of multiple comparisons.\nA t-test analysis was also performed comparing only two groups at a time. In order to assess whether differences between both groups could be due to differences in gait change regarding the initial condition (at 2014/12/23), two sets of analyses were performed for data at 2015/02/18 and 2015/04/14, respectively by using Logistic Regression Analysis. The model included two independent variables: the initial value for each descriptor and the difference between the corresponding value at 2015/02/18 (or 2015/04/14) and the initial value. Bonferroni correction was also applied."}, "Str/ort mice [3]": {"system": "Str/ort mice", "test": "Micro-CT of tibial trabecular and cortical bone in Str/ort mice", "experimental": "At 10-13 weeks of age, 21 male Str/ort mice (n=7/group) were assigned randomly to vehicle, hylin-betaine and xantho-betaine groups and were treated intraperitoneally 18 weeks with either vehicle (5% DMSO in 95% peanut oil), 50 mg/kg compound of Example 1 (“hylin-betaine”) in 5% DMSO and 95% peanut oil or 50 mg/kg compound of Example 2 (“xantho-betaine”) in 5% DMSO and 95% peanut oil. Micro-CT scanning and analysis were performed as described previously. Briefly, tibiae from vehicle, hylin-betaine and xantho-betaine treated groups were scanned using the Skyscan 1172 (Skyscan, Kontich, Belgium), with x-ray tube operated at 50 kV and 200 Micro-A, 1600 ms exposure time with a 0.5 mm aluminium filter and a voxel size of micro-m 5. The scanning time for each sample was approximately 2 hours. The slices were then reconstructed using NRecon 1.6.9.4 (Skyscan, Kontich, Belgium). 2D/3D analyses were performed using CTAn 1.15.4.0+ version software (Skyscan, Kontich, Belgium). Additionally, 3D visualization and production of colour-coded images of trabecular, cortical and skull bones were conducted using Avizo 9.0.0 software (FEI, Oregon USA). • a. Trabecular analysis: prior to analysis, Micro-CT images were re-oriented in DataViewer 1.5.0 (Skyscan, Kontich, Belgium), such that the cross-section within the transverse plane was perpendicular to the long axis of the bone. Tibial length was measured in CTAn 1.15.4.0+ software using a straight line measuring tool and the appearance of the trabecular ‘bridge’ connecting the two primary spongiosa bone ‘islands’ was set as reference point for analysis of the metaphyseal trabecular bone adjacent to the epiphyseal growth plate. 5% of the total bone length from this point (towards the diaphysis) was utilised for trabecular analysis of the proximal tibia. The trabecular region of interest was drawn freehand using the selection tool of CTAn, a few voxels away from the endocortical surfaces in order to avoid inclusion of remnants of primary spongiosa associated with cortical bone. The selected trabecular regions of interests were analysed using CTAn BatMan software (Skyscan, Kontich, Belgium) and morphometric parameters were recorded. • b. Whole bone cortical analysis: Whole bone analysis was performed on datasets derived from CT scans using BoneJ (version 1.4.0), an ImageJ plugin. Following segmentation, alignment and removal of fibula from the dataset, a minimum bone threshold was selected using a histogram based method in ImageJ which utilises all pixels in a stack to construct a histogram and was further confirmed using ImageJ “threshold function”. The threshold ranged between 22000-22100 and was applied to all datasets to separate higher density bone from soft tissues and air. This threshold was used in “Slice Geometry” function within BoneJ to calculate bone cross sectional area (CSA), second moment of area around the minor axis (Imin), second moment of area around the major axis (Imax), mean thickness determined by local thickness in two dimensions (Ct.Th), ellipticity and resistance to torsion (J). The most proximal (15%) and the most distal portions (25%) of tibial length were excluded from analysis, as these regions include trabecular bone."}, "Str/ort mice [4]": {"system": "Str/ort mice", "test": "Histology and grading of articular cartilage lesions in Str/ort mice", "experimental": "At 10-13 weeks of age, 21 male Str/ort mice (n=7/group) were assigned randomly to vehicle, hylin-betaine and xantho-betaine groups and were treated intraperitoneally 18 weeks with either vehicle (5% DMSO in 95% peanut oil), 50 mg/kg compound of Example 1 (“hylin-betaine”) in 5% DMSO and 95% peanut oil or 50 mg/kg compound of Example 2 (“xantho-betaine”) in 5% DMSO and 95% peanut oil. Dissected right knees were fixed in neutral buffered formalin, decalcified (Immunocal, Quartett, Berlin), wax-embedded and 6 μm coronal sections cut. Multiple sections (five/slide) from 120 μm intervals across the whole joint were stained with Tollidine blue (0.1% in 0.1 M acetate buffer, pH 5.6) and AC lesion severity graded. Sections from right vehicle, hylin-betaine and xantho-betaine treated Str/ort joints were stained with Safranin O. Sections were dewaxed, and AC lesion severity was scored in Str/ort mice by the methods of Chambers et al., (Chambers et al Expression of collagen and aggrecan genes in normal and osteoarthritic murine knee joints. Osteoarthritis and cartilage/OARS, Osteoarthritis Research Society. 2002; 10(1):51-61) consistent with an internationally-recognized system. Briefly, grade 0: normal; grade 1: rough surface or superficial zone lesions; grade 2: lesion down to the intermediate zone; grade 3: lesions down to tidemark or loss of AC; grades 4 and 5: AC loss across between 20% and 50% or 50-80% of condylar surface; grade 6: loss with subchondral bone exposure. Multiple slides (˜10), each containing five 6 μm sections sampled at 120 μm intervals spanning each entire joint were graded. Grading in each joint compartment (lateral/medial, tibia/femur) allowed for a maximum (most severe) grade to be assigned in each section, and used to produce an overall ‘average’ maximum grade in each group of mice, for the entire joint and for each compartment. In addition, a mean score was produced for each joint and for each compartment and these similarly used to produce an overall ‘average’ mean grade in each group of mice. Mean grades provide a measure of the ‘extent’ of AC lesion (representing relative volume) in each joint/compartment."}, "Str/ort mice [5]": {"system": "Str/ort mice", "test": "Micro-CT of tibial trabecular and cortical bone in Str/ort mice", "settings": "10-90% of total tibial length, vs vehicle"}, "[6]": {"settings": "50 mg/kg intraperitoneally, 18 weeks"}, "[7]": {"settings": "50 mg/kg intraperitoneally, 18 weeks, vs vehicle"}}, "note": "Entries after “also recorded” stand apart in the source; their conditions may differ.", "data": [{"smiles": "COc1cc(/C=C/C(=O)/C=C/c2ccc(OC(=O)C[N+](C)(C)C)c(OC)c2)ccc1O.[Cl-]", "note": "[Hylin-betaine, 2-(4-((1E,4E)-5-(4-hydroxy-3-methoxyphenyl)-3-oxopenta-1,4-dien-1-yl)-2-methoxyphenoxy)-N,N,N-trimethyl-2-oxoethanaminium chloride]", "values": [{"measurement": "health status: weight, hunching, gait, activity, vocalisation and respiration scores, coat condition", "setting": "Str/ort mice [1]", "result": "does not alter"}, {"measurement": "mice that refused to run (drop-out) during the gait studies", "setting": "Str/ort mice [2]; [6]", "result": "no mice"}, {"measurement": "percentage of drop-out regarding the total number of runs", "setting": "Str/ort mice [2]; [6]", "result": 0, "unit": "%"}, {"measurement": "distribution of gait data (runs) by treatment group", "setting": "Str/ort mice [2]; 2014 Dec. 23", "result": 7}, {"measurement": "distribution of gait data (runs) by treatment group", "setting": "Str/ort mice [2]; 2015 Apr. 14", "result": 7}, {"measurement": "distribution of gait data (runs) by treatment group", "setting": "Str/ort mice [2]; 2015 Feb. 18", "result": 7}, {"measurement": "effect on all gait descriptors", "setting": "Str/ort mice [2]; any time point, compared with vehicle group", "result": "no significant effect"}, {"measurement": "metaphyseal trabecular bone architecture and mass (tibial length, BV/TV, TV, BV, eccentricity, thickness, separation, number)", "setting": "Str/ort mice [3]; [7]", "result": "do not alter"}, {"measurement": "cortical cross-sectional area (CSA)", "setting": "Str/ort mice [3]; apart from one distal region and a region close to tibio-fibula junction", "result": "do not significantly"}, {"measurement": "mean cortical cross-sectional thickness", "setting": "Str/ort mice [3]; multiple regions from −15-60% tibial length, vs vehicle", "result": "significantly enhanced"}, {"measurement": "second moment of area around minor axis (Imin)", "setting": "Str/ort mice [3]; vs vehicle, one region proximally", "result": "does not affect"}, {"measurement": "tibial ellipticity", "setting": "Str/ort mice [3]; vs vehicle, region ˜40-50% along the tibia", "result": "modified by xantho-betaine but not hylin-betaine"}, {"measurement": "second moment of area around major axis (Imax)", "setting": "Str/ort mice [3]; vs vehicle, ˜35-55% of tibial length", "result": "did not affect"}, {"measurement": "effect on articular cartilage lesions / development of OA (overall)", "setting": "Str/ort mice [4]; [7]", "result": "prevents/improves articular cartilage lesions; also recorded: protective effect"}, {"measurement": "Mean OA scores", "setting": "Str/ort mice [4]; tibial and femoral lateral knee joint compartments, vs vehicle", "result": "statistically significantly lower"}, {"measurement": "maximum OA score", "setting": "Str/ort mice [4]; vs vehicle treated Str/ort mice", "result": "trend for lower maximum score"}, {"measurement": "effect on cortical bone (overall)", "setting": "Str/ort mice [5]", "result": "significantly alter"}]}]}
